Six molecules from ChEMBL document CHEMBL4196239, “Bromopyrrole Alkaloid Inhibitors of the Proteasome Isolated from a Dictyonella sp. Marine Sponge Collected at the Amazon River Mouth” (J Nat Prod, 2018) can be followed below.

The test can be described thus: Inhibition of yeast chymotrypsin-like 20S proteasome using suc-LLVY-AMC as substrate pretreated for 1 hr followed by substrate addition measured every 2 mins for 1 hr by fluorescence assay. Further details: species or system Saccharomyces cerevisiae.

The IC50 is the midpoint of a concentration-inhibition curve. Consider `Nc1nc(/C=C/CNC(=O)c2cc(Br)c[nH]2)c[nH]1`, for which the IC50 came to 23 µM.
On to `NC1=N[C@@]23CCCN2C(=O)c2[nH]cc(Br)c2[C@H]3N1`, for which the IC50 stood at 69 µM.
The value for `N=C(N)Nc1c2n(c(=O)c3[nH]cc(Br)c13)CCC2` was greater than 100 µM.
The same measure for `N=C1N[C@@H](O)[C@@]2(N1)[C@@H](Cl)[C@H](CN)[C@H]1CN3C(=O)c4ccc(Br)n4[C@@H]4NC(=N)N[C@@]43[C@@H]12`: 9.2 µM; for `Nc1ncc(/C=C/CNC(=O)c2ccc(Br)[nH]2)[nH]1`: 27 µM; for `N=C(N)Nc1c2n(c(=O)c3[nH]c(Br)cc13)CCC2`: greater than 100 µM.
